In BigSolDB 2.1:

C[C@]12CCC3=C4CCC(=O)C=C4CC[C@H]3[C@@H]1CC[C@@]2(O)CC#N
solubility (mole fraction)
Settings | 273.15 K | 278.15 K | 283.15 K | 288.15 K | 293.15 K | 298.15 K | 303.15 K | 308.15 K | 313.15 K | 318.15 K
in DMF | 0.0262 | 0.0275 | 0.0293 | 0.0303 | 0.0318 | 0.0333 | 0.0343 | 0.0354 | 0.0364 | 0.0374
in MTBE | 0.000258 | 0.000281 | 0.000302 | 0.000327 | 0.000355 | 0.000384 | 0.000416 | 0.00045 | 0.000489 | 0.000531
in THF | 0.0106 | 0.0115 | 0.0125 | 0.0138 | 0.0148 | 0.0158 | 0.0172 | 0.0182 | 0.0192 | 0.0201
in acetone | 0.00464 | 0.00495 | 0.00536 | 0.00576 | 0.00616 | 0.00667 | 0.00717 | 0.00777 | 0.00828 | 0.00899
in acetonitrile | 0.00125 | 0.00149 | 0.00172 | 0.00202 | 0.00232 | 0.00273 | 0.00313 | 0.00363 | 0.00414 | 0.00475
in ethanol | 0.000981 | 0.00122 | 0.00152 | 0.00189 | 0.00233 | 0.00287 | 0.00353 | 0.00434 | 0.00524 | 0.00637
in ethyl acetate | 0.00145 | 0.00167 | 0.00192 | 0.00215 | 0.00242 | 0.00273 | 0.00304 | 0.00338 | 0.00374 | 0.00414
in isopropanol | 0.000738 | 0.000899 | 0.0011 | 0.00131 | 0.00158 | 0.00192 | 0.00227 | 0.00273 | 0.00323 | 0.00378
in methanol | 0.00182 | 0.00209 | 0.00235 | 0.00269 | 0.00303 | 0.00344 | 0.00384 | 0.00434 | 0.00493 | 0.00553
in n-propanol | 0.00136 | 0.00161 | 0.00187 | 0.00219 | 0.00256 | 0.00298 | 0.00345 | 0.00399 | 0.00462 | 0.00532
in water | 5.99e-06 | 6.47e-06 | 6.99e-06 | 7.58e-06 | 8.19e-06 | 8.88e-06 | 9.62e-06 | 1.04e-05 | 1.13e-05 | 1.23e-05
